Experimental data: patent publication US9643946B2, “Tricyclic compound and use thereof” (SK CHEMICALS CO., LTD., priority 2013, dated 2017)

target: human GPR40 protein (Homo sapiens, UniProt O14842); test: GPR40 agonist binding inhibition (displacement of 3H-labeled propanoic acid radioligand); conditions: membrane protein including human GPR40, 3H-labeled propanoic acid radioligand, 25° C., 2 hours; read-out: Half maximal inhibitory concentration
Protocol: Measurement of 50% Inhibitory Concentration (ID50) for GPR40 Agonist Binding
To examine the efficacy of the compounds according to one exemplary embodiment of the present invention in modulating GPR40, the half maximal inhibitory concentrations (IC50) of the compounds according to one exemplary embodiment of the present invention were measured by Microbeta2™ (PerkinElmer Inc.) using a change in radiation dose emitted from ^3H-labeled propanoic acid (i.e., 3-(4-((2,6′-dimethyl-6-((4-(^3H))-phenylmethoxy)biphenyl-3-yl)methoxy)phenyl)propanoic acid), which is a radioactive isotope which binds to a human GPR40 protein, as an indicator.
Specifically, a test compound was prepared by serial dilution with DMSO, and 100 μL of a binding buffer (including 25 mM HEPES (pH 7.5), 5 mM MgCl2, 100 mM NaCl, and 0.1% free fatty acid BSA; Sigma-Aldrich Corp.) was put into each well of a 96-well transparent plate. Thereafter, each of the diluted compound, propanoic acid which was prepared by dissolving propanoic acid in DMSO to a concentration of 500 mM and not labeled with a radioactive isotope, and DMSO was dispensed at 5 μL per well. ^3H-labeled propanoic acid was dissolved in a binding buffer at a concentration of 1 nM and dispensed at 50 μL into the corresponding wells, and a membrane protein including a human GPR40 protein was dissolved in a binding buffer at a concentration of 20 μg/well and dispensed at 100 μL, into the corresponding wells.
After the dispensation was completed, the plate was incubated at a temperature of 25° C. and a rotary speed of 230 rpm for 2 hours while shaking. A human GPR40 complex was transferred to Filtermat A (PerkinElmer Inc.) using a cell harvester (PerkinElmer Inc.), washed 10 times with 50 mM tris-HCl, dried, and then scintillated using Meltilex (PerkinElmer Inc.). Thereafter, an emitted radiation dose was measured using Microbeta2™. The radiation doses emitted from the complex in the well containing 10 mM unlabeled propanoic acid and the complex in the well containing DMSO alone were set as 0% and 100%, respectively. Thus, a change curve for each of the radiation doses was plotted to calculate the half maximal inhibitory concentration of the test compound.

Chain of human GPR40 protein (O14842 whole entry): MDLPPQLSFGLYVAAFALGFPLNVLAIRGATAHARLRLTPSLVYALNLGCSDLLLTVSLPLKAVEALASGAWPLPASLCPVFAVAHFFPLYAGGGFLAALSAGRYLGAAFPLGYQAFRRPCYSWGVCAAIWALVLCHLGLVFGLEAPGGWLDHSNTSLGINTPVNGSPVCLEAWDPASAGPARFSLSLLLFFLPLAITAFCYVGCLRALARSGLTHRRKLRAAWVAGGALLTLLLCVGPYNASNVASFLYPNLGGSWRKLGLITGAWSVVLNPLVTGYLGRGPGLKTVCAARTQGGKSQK

Compound | IC50 [µM]
Cc1cc(OCCCS(C)(=O)=O)cc2c1-c1cccc(COc3ccc4c(c3)OC[C@H]4CC(=O)O)c1CCC2 [Example 1, 2-((3S)-6-((11-methyl-9-(3-(methylsulfonyl)propoxy)-6,7-dihydro-5H-dibenzo[a,c][7]annulen-4-yl)methoxy)-2,3-dihydrobenzofuran-3-yl)acetic acid] | 0.158
Cc1cc(OCCCS(C)(=O)=O)cc2c1-c1cc(COc3ccc4c(c3)OC[C@H]4CC(=O)O)ccc1OCC2 [Example 14, 2-((3S)-6-((11-methyl-9-(3-(methylsulfonyl)propoxy)-6,7-dihydrodibenzo[b,d]oxepin-2-yl)methoxy)-2,3-dihydrobenzofuran-3-yl)acetic acid] | 0.0177
CS(=O)(=O)CCCOc1ccc2c(c1)COCc1ccc(CNc3ccc([C@H]4C[C@@H]4C(=O)O)cc3)cc1-2 [Example 18, (1S,2S)-2-(4-(((9-(3-(methylsulfonyl)propoxy)-5,7-dihydrodibenzo[c,e]oxepin-2-yl)methyl)amino)phenyl)cyclopropanecarboxylic acid] | 0.752
CS(=O)(=O)CCCOc1ccc2c(c1)CCCc1ccc(COc3ccc([C@H]4C[C@@H]4C(=O)O)cc3)cc1-2 [Example 25, (1S,2S)-2-(4-((9-(3-(methylsulfonyl)propoxy)-6,7-dihydro-5H-dibenzo[a,c][7]annulen-2-yl)methoxy)phenyl)cyclopropanecarboxylic acid] | 0.103
Cc1cc(OCCCS(C)(=O)=O)cc2c1-c1cc(COc3ccc([C@H]4C[C@@H]4C(=O)O)cc3)ccc1CC2 [Example 31, (1S,2S)-2-(4-((5-methyl-7-(3-(methylsulfonyl)propoxy)-9,10-dihydrophenanthren-3-yl)methoxy)phenyl)cyclopropanecarboxylic acid] | 0.0457
CCS(=O)(=O)CCCOc1cc(C)c2c(c1)CCOc1ccc(COc3ccc4c(c3)OC[C@H]4CC(=O)O)cc1-2 [Example 38, 2-((3S)-6-((9-(3-(ethylsulfonyl)propoxy)-11-methyl-6,7-dihydrodibenzo[b,d]oxepin-2-yl)methoxy)-2,3-dihydrobenzofuran-3-yl)acetic acid] | 0.0391
CCS(=O)(=O)CCCOc1cc(C)c2c(c1)CCOc1ccc(COc3ccc([C@H]4C[C@@H]4C(=O)O)c(F)c3)cc1-2 [Example 41, (1S,2S)-2-(4-((9-(3-(ethylsulfonyl)propoxy)-11-methyl-6,7-dihydrodibenzo[b,d]oxepin-2-yl)methoxy)-2-fluorophenyl)cyclopropanecarboxylic acid] | 0.125
CCN1CCc2cc(OCCCS(C)(=O)=O)ccc2-c2cc(COc3ccc4c(c3)OC[C@H]4CC(=O)O)ccc21 [Example 44, (S)-2-(6-((5-ethyl-9-(3-(methylsulfonyl)propoxy)-6,7-dihydro-5H-dibenzo[b,d]azepin-2-yl)methoxy)-2,3-dihydrobenzofuran-3-yl)acetic acid] | 0.0757
Cc1cc(OCC2CCS(=O)(=O)CC2)cc2c1-c1cc(COc3ccc4c(c3)OC[C@H]4CC(=O)O)ccc1OCC2 [Example 47, 2-((3S)-6-((9-((1,1-dioxidotetrahydro-2H-thiopyran-4-yl)methoxy)-11-methyl-6,7-dihydrodibenzo[b,d]oxepin-2-yl)methoxy)-2,3-dihydrobenzofuran-3-yl)acetic acid] | 0.0531
Cc1cc(OC2CCS(=O)(=O)CC2)cc2c1-c1cc(COc3ccc([C@H]4C[C@@H]4C(=O)O)cc3)ccc1CCC2 [Example 59, (1S,2S)-2-(4-((9-((1,1-dioxidotetrahydro-2H-thiopyran-4-yl)oxy)-11-methyl-6,7-dihydro-5H-dibenzo[a,c][7]annulen-2-yl)methoxy)phenyl)cyclopropanecarboxylic acid] | 0.071
CCS(=O)(=O)CCCOc1cc(C)c2c(c1)CCCc1ccc(COc3ccc([C@H]4C[C@@H]4C(=O)O)cc3)cc1-2 [Example 61, (1S,2S)-2-(4-((9-(3-(ethylsulfonyl)propoxy)-11-methyl-6,7-dihydro-5H-dibenzo[a,c][7]annulen-2-yl)methoxy)phenyl)cyclopropanecarboxylic acid] | 0.0266
